This is an account of results in ChEMBL document CHEMBL1201862, “PubChem BioAssay data set” (2004).

Some test systems named below: UO-31; HL-60; OVCAR-8; HCT-116; RXF 393; HCC 2998; EKVX; NCI-H23; MOLT-4; A498; SN12C; SNB-19; SK-OV-3; U-251; TK-10; 786-0; SF-295; SNB-75; RPMI-8226; NCI/ADR-RES.
What all share (assay): NCI anticancer screen, dose series, 48 h

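Each compound was tested at five concentrations against cells in 96-well plates for 48 hours. GI50 is the concentration that inhibits growth by half.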 The source made the active and inactive calls. Rule as the data show it: active = GI50 up to about 1.1 µM and inactive = higher. Bounds are passed on as bounds.

In the case of `COc1ccc([C@@H]2CC(=O)NCCCCNCCCN2)cc1`, the GI50 in the experiment with UO-31 was > 100 µM (inactive); with HL-60 it was > 100 µM (inactive); in the experiment with OVCAR-8, > 100 µM (inactive); with HCT-116, > 100 µM (inactive); with RXF 393 it was > 100 µM (inactive); in the experiment with HCC 2998, 0.0131 µM (active). In addition, the GI50 in the experiment with EKVX, with NCI-H23, in the experiment with MOLT-4, in the experiment on A498, in the experiment with SN12C and in the experiment with SNB-19 was > 100 µM (inactive) in each case. The GI50 in the experiment on SK-OV-3, in the experiment with U-251, in the experiment with TK-10, in the experiment on 786-0, with SF-295 and in the experiment on SNB-75 was > 100 µM (inactive) each time. For the same compound, in the experiment on RPMI-8226, the GI50 was > 100 µM (inactive).
For `CN1C(=O)C(/C=N/NC(=O)c2cccnc2)C(N)N(C)C1=O` (configuration not stated), the GI50 in the experiment with UO-31, in the experiment on OVCAR-8, with NCI/ADR-RES, in the experiment with HCT-116, in the experiment with RXF 393 and in the experiment on HCC 2998 was > 100 µM (inactive) each time. For the same compound, the GI50 in the experiment on EKVX, in the experiment on NCI-H23, with MOLT-4, in the experiment with SN12C, with SNB-19 and with SK-OV-3 was > 100 µM (inactive) each time. Also, the GI50 with U-251, with TK-10, with 786-0, with SF-295, in the experiment with SNB-75 and in the experiment on RPMI-8226 was > 100 µM (inactive) in each case.
For `CCOC1=C2C(C)(CCC3[C@@]4(C)C=CC(=O)C(C)(C)C4CC(O)[C@@]23C)C(c2ccoc2)C1=O` (some centres not stated), the GI50 in the experiment with UO-31 was 14.5 µM (inactive); in the experiment with HL-60, 14.4 µM (inactive); in the experiment on OVCAR-8 it was 18.3 µM (inactive); with HCT-116, 11.3 µM (inactive); with RXF 393, 16.1 µM (inactive); in the experiment on HCC 2998 it was 16.3 µM (inactive). The GI50 was 18.5 µM (inactive) with EKVX; 13.1 µM (inactive) in the experiment with NCI-H23; 7 µM (inactive) with MOLT-4; 17.3 µM (inactive) with A498; 25.1 µM (inactive) in the experiment on SN12C; 27.2 µM (inactive) with SNB-19. Besides, the GI50 in the experiment on SK-OV-3 is 26.4 µM (inactive); in the experiment on U-251, 18 µM (inactive); in the experiment on TK-10, 25.2 µM (inactive); in the experiment on 786-0, 15.3 µM (inactive); in the experiment with SF-295 it was 12.8 µM (inactive); in the experiment on SNB-75, 54.3 µM (inactive). For the same compound, in the experiment with RPMI-8226, the GI50 was 15.6 µM (inactive).
For `O=C1CCC(Cc2ccc(Cl)cc2Cl)C(=O)N1` (configuration not stated), the GI50 in the experiment on UO-31 was 83.6 µM (inactive); with HL-60 it was > 100 µM (inactive); in the experiment on OVCAR-8 it was > 100 µM (inactive); in the experiment with NCI/ADR-RES it was > 100 µM (inactive); with HCT-116, > 100 µM (inactive); in the experiment on RXF 393, 32 µM (inactive). For the same compound, the GI50 is 65 µM (inactive) with EKVX; > 100 µM (inactive) in the experiment on NCI-H23; 59.7 µM (inactive) in the experiment with MOLT-4; > 100 µM (inactive) with SN12C; > 100 µM (inactive) with SNB-19; > 100 µM (inactive) with SK-OV-3. The GI50 in the experiment on U-251 is > 100 µM (inactive); in the experiment on TK-10 it was > 100 µM (inactive); in the experiment on 786-0, > 100 µM (inactive); in the experiment with SF-295 it was > 100 µM (inactive); in the experiment on SNB-75, 64.6 µM (inactive); in the experiment with RPMI-8226 it was 79.4 µM (inactive).
In the case of `CC1=NN(C(=O)CC(=O)N(C(=O)c2ccccc2Cl)c2ccc(C)cc2)C(=O)C1/N=N/c1ccc([N+](=O)[O-])cc1` (configuration not stated), the GI50 was 44 µM (inactive) with UO-31; > 51.9 µM (inactive) with HL-60; 27.9 µM (inactive) in the experiment on OVCAR-8; 17.7 µM (inactive) in the experiment with HCT-116; 23.4 µM (inactive) with RXF 393; > 100 µM (inactive) with HCC 2998. The GI50 with EKVX was > 72.9 µM (inactive); in the experiment with NCI-H23 it was 47.3 µM (inactive); with MOLT-4 it was > 100 µM (inactive); in the experiment on A498, > 58.5 µM (inactive); in the experiment on SN12C, > 100 µM (inactive); in the experiment with SNB-19 it was 53.1 µM (inactive). Besides, the GI50 is 31.8 µM (inactive) with SK-OV-3; 19.6 µM (inactive) in the experiment on U-251; 49.5 µM (inactive) with TK-10; 29 µM (inactive) in the experiment on 786-0; 58.5 µM (inactive) with SF-295; > 43.6 µM (inactive) in the experiment on SNB-75. Besides, the GI50 in the experiment with RPMI-8226 is > 50.4 µM (inactive).
As for `O=C(/C=C/c1ccccc1Cl)c1cccc2ccccc12`, the GI50 in the experiment on UO-31 is 9.2 µM (inactive); in the experiment on HL-60, 10.4 µM (inactive); in the experiment with OVCAR-8, 1.97 µM (inactive); in the experiment on HCT-116 it was 3.71 µM (inactive); in the experiment with RXF 393, 14 µM (inactive); in the experiment with HCC 2998, 14.5 µM (inactive). For the same compound, the GI50 with EKVX was 12.8 µM (inactive); with NCI-H23 it was 12.6 µM (inactive); in the experiment on MOLT-4 it was 2.16 µM (inactive); with A498 it was 14.4 µM (inactive); in the experiment with SN12C, 48.6 µM (inactive); in the experiment on SNB-19, 4.69 µM (inactive). Moreover, the GI50 was 18.9 µM (inactive) in the experiment on SK-OV-3; 2.66 µM (inactive) in the experiment on U-251; 15.8 µM (inactive) with TK-10; 5.15 µM (inactive) in the experiment on 786-0; 12.5 µM (inactive) in the experiment with SF-295; 6.97 µM (inactive) with SNB-75. For the same compound, the GI50 with RPMI-8226 was 17.2 µM (inactive).
With `COc1ccc(C(=O)C2=NON3OC23C(=O)c2ccc(OC)cc2)cc1` (configuration not stated), the GI50 in the experiment on UO-31 is 14.1 µM (inactive); with HL-60, 2.18 µM (inactive); in the experiment on OVCAR-8, 8.77 µM (inactive); in the experiment with HCT-116, 7.26 µM (inactive); with RXF 393 it was 4.09 µM (inactive); with HCC 2998, 18.1 µM (inactive). Further, the GI50 in the experiment on EKVX was 19.3 µM (inactive); with NCI-H23, 13.2 µM (inactive); in the experiment with MOLT-4, 2.59 µM (inactive); in the experiment on A498, 13.7 µM (inactive); with SN12C, 15.3 µM (inactive); with SNB-19 it was 15.9 µM (inactive). Besides, the GI50 in the experiment on SK-OV-3 was 19.5 µM (inactive); in the experiment on U-251, 16 µM (inactive); with TK-10, 19.7 µM (inactive); in the experiment on 786-0, 3.44 µM (inactive); in the experiment on SF-295, 19.2 µM (inactive); with SNB-75, 24.7 µM (inactive). The GI50 with RPMI-8226 was 3.37 µM (inactive).
With `COC(=O)[C@@H](C)[C@H]1CC[C@@](C)(CCC2=C(C)CC3C=C(C)CCC3C2(C)C)OO1` (some centres not stated), the GI50 in the experiment with UO-31 is 1.45 µM (inactive); with HL-60 it was 0.212 µM (active); in the experiment on OVCAR-8 it was 1.92 µM (inactive); in the experiment on HCT-116 it was 1.69 µM (inactive); with RXF 393, 1.37 µM (inactive); in the experiment on HCC 2998, 1.35 µM (inactive). Moreover, the GI50 is 1.64 µM (inactive) in the experiment on EKVX; 1.7 µM (inactive) in the experiment with NCI-H23; 1.04 µM (active) with MOLT-4; 1.8 µM (inactive) with A498; 1.06 µM (active) with SN12C; 1.72 µM (inactive) in the experiment with SNB-19. Also, the GI50 in the experiment on SK-OV-3 was 2.4 µM (inactive); in the experiment with U-251, 1.42 µM (inactive); in the experiment on TK-10, 1.91 µM (inactive); in the experiment with 786-0, 0.117 µM (active); in the experiment with SF-295 it was 1.79 µM (inactive); with SNB-75, 1.57 µM (inactive). Further, the GI50 with RPMI-8226 was 1.65 µM (inactive).
With `COC(=O)c1ccc(C)cc1CC1Cc2cccc(C)c2C1=O` (configuration not stated), the GI50 in the experiment on UO-31 is 13.4 µM (inactive); in the experiment with OVCAR-8 it was 5.08 µM (inactive); with NCI/ADR-RES it was 5.16 µM (inactive); with HCT-116 it was 3.68 µM (inactive); in the experiment on RXF 393 it was 7.87 µM (inactive); in the experiment on HCC 2998 it was 9.59 µM (inactive). Besides, the GI50 was 2.94 µM (inactive) in the experiment on EKVX; 11.1 µM (inactive) in the experiment on NCI-H23; 4.11 µM (inactive) in the experiment with MOLT-4; 10.2 µM (inactive) with SN12C; 4.4 µM (inactive) in the experiment on SNB-19; 8.05 µM (inactive) in the experiment with SK-OV-3. In addition, the GI50 is 3.87 µM (inactive) in the experiment with U-251; 12.9 µM (inactive) in the experiment on TK-10; 14.6 µM (inactive) with 786-0; 6.49 µM (inactive) with SF-295; 5.02 µM (inactive) with SNB-75.
As for `CNC(=S)/C(=N\Nc1[nH]cnc1C(N)=O)C(N)=S`, the GI50 with UO-31 is 1.61 µM (inactive); in the experiment on OVCAR-8, 1.11 µM (active); with NCI/ADR-RES, 1.36 µM (inactive); with HCT-116 it was 3.52 µM (inactive); in the experiment on RXF 393, > 100 µM (inactive); in the experiment on HCC 2998 it was 1.99 µM (inactive). Besides, the GI50 in the experiment with EKVX was 22.3 µM (inactive); with NCI-H23, 17.3 µM (inactive); with MOLT-4, 0.711 µM (active); in the experiment with SN12C, 2.44 µM (inactive); in the experiment with SNB-19 it was 45.3 µM (inactive); in the experiment with SK-OV-3, 1.51 µM (inactive). In addition, the GI50 in the experiment on U-251 is 30.3 µM (inactive); with TK-10, 1.24 µM (inactive); in the experiment on 786-0, 7.71 µM (inactive); in the experiment on SF-295 it was 3.36 µM (inactive); with SNB-75, 6.82 µM (inactive); in the experiment on RPMI-8226, 1.14 µM (inactive).
In the case of `CCOC(=O)NC(Nc1ccc(S(=O)(=O)Nc2ncccn2)cc1)(C(=O)OCC)C(F)(F)F` (configuration not stated), the GI50 in the experiment with UO-31, in the experiment on HL-60, in the experiment with OVCAR-8, in the experiment with NCI/ADR-RES, with HCT-116 and in the experiment with HCC 2998 was > 100 µM (inactive) in each case. Also, the GI50 in the experiment on EKVX, with NCI-H23, with MOLT-4, in the experiment with SN12C, in the experiment on SNB-19 and in the experiment on SK-OV-3 was > 100 µM (inactive) in each case. For the same compound, the GI50 in the experiment with U-251, in the experiment with 786-0, in the experiment on SF-295, in the experiment with SNB-75 and in the experiment on RPMI-8226 was > 100 µM (inactive) throughout.
